US20140322250A1, “Peptides for the Treatment of Multiple Sclerosis and Related Diseases” (priority 2013, published 2014)
Where no end group is shown, it is not given here. [ ]: non-standard residue; d: D form.

Legend:
CCR2 = CCR2 (Homo sapiens, UniProt P41597); assay type: cell-based; conditions: for blocking CCL2 (MCP-1) chemotaxis: FIG. 3, tested at 10^−14 M; for inhibition of CCR2 (MCP-1) elicited chemotaxis: FIG. 4, 20 pM peptide 30 minutes prior, MCP-1 0.6 nM for 2 hours
Description: Triplicate determinations were made and results are expressed as the mean plus or minus SEM. The experiment shown is a direct comparison among all RAPs. Statistical analysis was by unpaired t-test, with significance set at the p<0.01 (*) level for difference from CCL2 only chemotaxis.
Data are the average of 2 separate experiments, conducted with triplicate determinations. Data (chemotactic index) are presented as mean±SEM. The IC50 for inhibition of MCP-1 or MIP-1β was generated by a nonlinear inhibition curve fit in GraphPad Prism software, version 5.0. […] Data are presented as mean±SEM. *P<0.05, **P<0.01 vs RAP-103 untreated.
Triplicate determinations were performed and results are expressed as the mean plus or minus SEM. The experiment shown is a direct comparison among all RAPs. Statistical analysis was by unpaired t-test, with significance set at the p<0.01 (*) level for difference from CCL2 only chemotaxis.
A representative experiment is shown comprising triplicate determinations and is presented as relative fluorescence units, Mean±SEM.

response to bradykinin = conditions: amounts up to 50,000 times the standard challenge of bradykinin; Stewart and Woolley 1965; cited from earlier work
[1] = tested on: β-Integrin-mediated adhesion to human fibronectin; assay: MCP-1 elicited adhesion of human monocytes to human fibronectin; assay type: cell-based; conditions: FIG. 5, 10 minutes pretreatment
Description: Human monocytes were treated with the indicated doses of all-D-(IDNYT) for 10 minutes prior to adherence to the β-integrin human fibronectin. Data is the average of two separate experiments, conducted with triplicate determinations. Data are presented as Mean±SEM of the normalized adherence response from two experiments. The IC50 for inhibition of MCP-1 stimulated adherence was generated using a nonlinear inhibition curve fit in GraphPad Prism Version 5.0.

[2] = Pharmacokinetic study, plasma concentration by LC-MS/MS; assay type: in vivo, male Sprague Dawley rat
Description: A pharmacokinetic study of all-D-TTNYT (SEQ ID NO:2) (RAP-103) following intravenous and oral administration was conducted at a target dose level of 1 mg/kg in the male Sprague Dawley rat. The concentration of RAP-103 in each plasma and brain sample was measured using a suitable LC-MS/MS assay. The assay used was a research grade assay (RGA-1) which was established by assessing the accuracy, precision and the linearity of the method. Plasma concentrations generated were used to evaluate the pharmacokinetic parameters of all-D-TTNYT (SEQ ID NO:2) (RAP-103).
The dose formulation was administered intravenously to some animals as a slow bolus over ca 30 s via the tail vein and to a different group of animals orally via gastric gavage at a target dose volume of 1 mL/kg, to achieve a target dose level of 1 mg/kg. The dose volume administered was calculated according to the bodyweight of the animal on the day of dosing. The weight of administered dose was recorded. […] Results expressed as ng/mL

[3] = 6.0 mg daily intranasal
Description: Their neurological examination confirmed increased deep tendon reflexes, spasticity of the lower limbs and pyramidal weakness of the legs. Therapy, consisting of 6.0 mg of Peptide T daily, was self-administered via 4 metered intranasal sprays, delivered three times daily.

[4] = target: TLR4 on human monocyte-derived immature dendritic cells (human, UniProt O00206 24-839); assay: cell-based or functional assay
TLR4 on human monocyte-derived immature dendritic cells, sequence (O00206 24-839): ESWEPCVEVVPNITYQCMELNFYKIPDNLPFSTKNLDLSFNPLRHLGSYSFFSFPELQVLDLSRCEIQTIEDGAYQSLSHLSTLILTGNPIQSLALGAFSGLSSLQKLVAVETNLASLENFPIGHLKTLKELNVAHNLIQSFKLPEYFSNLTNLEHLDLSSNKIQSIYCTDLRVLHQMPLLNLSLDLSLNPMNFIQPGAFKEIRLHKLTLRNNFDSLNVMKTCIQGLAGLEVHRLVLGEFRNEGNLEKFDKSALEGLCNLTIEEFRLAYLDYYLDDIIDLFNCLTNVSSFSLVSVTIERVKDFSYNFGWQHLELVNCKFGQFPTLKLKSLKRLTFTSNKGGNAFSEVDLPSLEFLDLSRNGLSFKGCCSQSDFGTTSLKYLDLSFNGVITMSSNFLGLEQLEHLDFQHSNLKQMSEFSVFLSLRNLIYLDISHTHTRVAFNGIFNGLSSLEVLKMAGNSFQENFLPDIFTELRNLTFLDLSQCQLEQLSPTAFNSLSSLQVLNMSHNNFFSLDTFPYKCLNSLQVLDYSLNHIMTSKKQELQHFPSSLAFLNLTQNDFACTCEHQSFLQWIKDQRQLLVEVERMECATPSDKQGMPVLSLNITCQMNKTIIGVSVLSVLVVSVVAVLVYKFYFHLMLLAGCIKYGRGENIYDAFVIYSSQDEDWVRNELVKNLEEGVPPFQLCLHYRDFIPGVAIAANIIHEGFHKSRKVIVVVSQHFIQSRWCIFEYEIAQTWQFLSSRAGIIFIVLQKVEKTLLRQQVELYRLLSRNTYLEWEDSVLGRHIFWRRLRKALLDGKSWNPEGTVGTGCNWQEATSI

CCR2, sequence (P41597 whole entry): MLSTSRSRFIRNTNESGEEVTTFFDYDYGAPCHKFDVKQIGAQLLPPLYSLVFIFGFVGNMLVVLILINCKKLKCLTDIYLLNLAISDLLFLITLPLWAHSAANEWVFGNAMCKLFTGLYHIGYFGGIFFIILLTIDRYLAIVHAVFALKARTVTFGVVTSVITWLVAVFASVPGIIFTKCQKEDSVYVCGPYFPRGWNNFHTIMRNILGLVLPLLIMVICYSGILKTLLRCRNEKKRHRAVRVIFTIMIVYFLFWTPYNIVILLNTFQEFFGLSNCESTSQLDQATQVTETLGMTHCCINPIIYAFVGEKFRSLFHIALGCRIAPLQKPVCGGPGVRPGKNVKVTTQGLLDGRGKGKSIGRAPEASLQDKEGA

Asn-Thr-Ser-Tyr-Arg ([dN][dT][dS][dY][dR]) [NTSYR]
blocking CCL2 (MCP-1) chemotaxis (CCR2): retain potency

Glu-Thr-Trp-Tyr-Ser ([dE][dT][dW][dY][dS]) [ETWYS]
inhibition of CCR2 (MCP-1) elicited chemotaxis (CCR2): potently block

Asn-Thr-Arg-Tyr-Arg [NYRYR]
inhibition of CCR2 (MCP-1) elicited chemotaxis (CCR2): potently block

Asn-Thr-Ser-Tyr-Gly ([dN][dT][dS][dY]G) [NTSYG]
inhibition of CCR2 (MCP-1) elicited chemotaxis (CCR2): potently block

all-D-bradykinin
inhibition of the response to bradykinin or bradykinin-like effect (response to bradykinin): neither any inhibition of the response to bradykinin, or any bradykinin-like effect

Thr-Thr-Ser-Tyr-Thr ([dT][dT][dS][dY][dT]) [TTSYT]
blocking CCL2 (MCP-1) chemotaxis (CCR2): retain potency

Ser-Ser-Thr-Tyr-Arg ([dS][dS][dT][dY][dR]) [SSTYR]
blocking CCL2 (MCP-1) chemotaxis (CCR2): retain potency

Ile-Asp-Asn-Tyr Thr ([dI][dD][dN][dY][dT]) [IDNYT (SEQ ID NO:6)]
inhibition of CCR2 (MCP-1) elicited chemotaxis (CCR2): potently block
blocking of MCP-1 elicited adhesion [1]: potently blocking

C[C@H](O)[C@@H](N)C(=O)N[C@@H](C(=O)N[C@H](CC(N)=O)C(=O)N[C@H](Cc1ccc(O)cc1)C(=O)N[C@@H](C(=O)O)[C@H](C)O)[C@H](C)O [RAP-103, all-D-TTNYT]
time of peak levels in plasma ([2]; 1 mg/kg, rat): 10 to 15 min
concentration in plasma ([2]; intravenous 1 mg/kg, 0.5 h, individual animals): 561 ng/mL
tolerability of dose administrations ([2]; intravenous and oral gavage, 1 mg/kg, rat): well tolerated
level at 0.083 h ([2]; male, Sprague Dawley, rat, plasma, iv, 1 mg/kg, intravenous 1 mg/kg, 0.083 h, individual animals): 3050 ng/mL
level at 0.167 h ([2]; male, Sprague Dawley, rat, plasma, iv, 1 mg/kg, intravenous 1 mg/kg, 0.167 h, individual animals): 2400 ng/mL
level at 0.25 h ([2]; male, Sprague Dawley, rat, plasma, iv, 1 mg/kg, intravenous 1 mg/kg, 0.25 h, individual animals): 2050 ng/mL
level at 0.5 h ([2]; male, Sprague Dawley, rat, plasma, iv, 1 mg/kg, intravenous 1 mg/kg, 0.5 h, individual animals): 558 ng/mL
level at 1 h ([2]; male, Sprague Dawley, rat, plasma, iv, 1 mg/kg, intravenous 1 mg/kg, 1 h, individual animals): 405 ng/mL

ASTTTNYY [Peptide T]
patient-reported change ([3]; after 2 weeks, continued to end of week 10): definite improvements
time to walk 10 meters ([3]; end of week 10, 65 seconds initially, one patient): 15 s

Ile-Asn-Asn-Tyr-Thr ([dI][dN][dN][dY][dT]) [IDNYT (SEQ ID NO:8)]
inhibition of CCR2 (MCP-1) elicited chemotaxis (CCR2): potently block

[dT][dT][dN][dY][dT] [all-D-TTNYT (RAP-103)]
IC50 for inhibition of LPS (100 ng/mL) induced TNFα production in human monocyte-derived iDC (FIG. 6) [4]: ~0.1 pM
